{"source": "patent US20070010397A1", "about": "“Safeners and their application” (priority 2003, published 2007)", "key": {"[1]": {"test_system": "wheat (variety: Norin No.61)", "assay": "Test for safening effect against phytotoxicity of herbicidal compounds against wheat", "format": "in vivo", "details": "for Phytotoxicity %: wheat seeds in dish, after 5 days; for Expected value E by Colby's equation (Phytotoxicity %): wheat", "procedure": "Preparation of Test Solution\nCarrier: Acetone 5 parts by weight\nSurfactant: Benzyloxy polyglycol ether 1 part by weight\nA prescribed amount of the test solution is prepared by diluting with water the formulation obtained by mixing the above-mentioned carrier and surfactant with 1 part by weight of the active compounds (safeners and herbicidal compounds).\nTest Example 1: Test for Safening Effect against Phytotoxicity of Herbicidal Compounds against Wheat\nSeeds of wheat (variety: Norin No.61) were sown on absorbent cotton in a dish, containing the previously prepared, diluted solution with the prescribed concentration of the test compounds, and grown in a climate chamber. After 5 days the degree of phytotoxicity, particularly bleaching state, was observed and evaluated in 0-100%.\n100% =Complete bleaching or withering state\n(§1) Test results were evaluated by Colby's equation. Colby's equation: [formula]\nE: Expected value of phytotoxicity by mixing\nX: Measured value of phytotoxicity by one active compound • Y: Measured value of phytotoxicity by the other active compound Table 1"}, "[2]": {"test_system": "paddy rice (variety: Nipponbare)", "assay": "Test for safening effect against phytotoxicity of herbicidal compounds against paddy rice", "format": "in vivo", "procedure": "as §1\nTest Example 2: Test for Safening Effect against Phytotoxicity of Herbicidal Compounds against Paddy Rice (Method)\nTwo seedlings of paddy rice (variety: Nipponbare) of 2.5 leaf stage were transplanted in a plastic pot under submerged conditions with a trnsplantation depth of 0 cm. A diluted solution with the prescribed concentration of the 4% granules of the compound No. I-1 and herbicidal compounds were applied on the water surface. Three weeks after the application the degree of phytotoxicity was observed and evaluated in 0-100%.\n100%=Complete withering state"}, "[3]": {"details": "safener 10 ppm alone (H-1 0 ppm), 0% = no phytotoxicity, 100% = complete bleaching or withering"}, "[4]": {"details": "safener 50 ppm alone (H-1 0 ppm)"}}, "data": [{"smiles": "CS(=O)(=O)c1ccc(C(=O)C2=C(O)CCCC2=O)c(Cl)c1COCC1CCCO1", "note": "(stereo not drawn) [H-1]", "values": [{"measurement": "Phytotoxicity %", "setting": "[1]; H-1 10 ppm alone (safener 0 ppm)", "result": 50, "unit": "%"}, {"measurement": "Phytotoxicity %", "setting": "[2]; paddy rice, three weeks after application, H-1 0.6 kg/ha + No. I-1 1 kg/ha", "result": 10, "unit": "%"}, {"measurement": "Phytotoxicity %", "setting": "[2]; paddy rice, three weeks after application, H-1 0.6 kg/ha alone (No. I-1 0 kg/ha)", "result": 30, "unit": "%"}, {"measurement": "Expected value E by Colby's equation (Phytotoxicity %)", "setting": "[2]; paddy rice, H-1 0.6 kg/ha + No. I-1 1 kg/ha", "result": 30, "unit": "%"}]}, {"smiles": "COC(=O)c1ccccc1CS(=O)(=O)NC(=O)Nc1nc(OC)cc(OC)n1", "note": "[H-2, Bensuiliron-methyl]", "values": [{"measurement": "Phytotoxicity %", "setting": "[2]; in vivo", "result": 40, "unit": "%"}]}, {"smiles": "CCOC(=O)[C@@H](C)Oc1ccc(Oc2nc3ccc(Cl)cc3o2)cc1", "note": "[H-3, Fenoxaprop-P-ethyl]", "values": [{"measurement": "Phytotoxicity %", "setting": "[2]; paddy rice, three weeks after application, H-3 0.1 kg/ha + No. I-1 1 kg/ha", "result": 40, "unit": "%"}, {"measurement": "Phytotoxicity %", "setting": "[2]; paddy rice, three weeks after application, H-3 0.1 kg/ha alone (No. I-1 0 kg/ha)", "result": 70, "unit": "%"}, {"measurement": "Expected value E by Colby's equation (Phytotoxicity %)", "setting": "[2]; paddy rice, H-3 0.1 kg/ha + No. I-1 1 kg/ha", "result": 70, "unit": "%"}]}, {"smiles": "N#Cc1ccccc1NC(=O)c1snc(Cl)c1Cl", "note": "[No. I-1]", "values": [{"measurement": "Phytotoxicity %", "setting": "[1]; safener 10 ppm + H-1 10 ppm", "result": 20, "unit": "%"}, {"measurement": "Phytotoxicity %", "setting": "[1]; [3]", "result": 0, "unit": "%"}, {"measurement": "Phytotoxicity %", "setting": "[1]; safener 50 ppm + H-1 10 ppm", "result": 20, "unit": "%"}, {"measurement": "Phytotoxicity %", "setting": "[1]; [4]", "result": 0, "unit": "%"}, {"measurement": "Expected value E by Colby's equation (Phytotoxicity %)", "setting": "[1]; safener 10 ppm + H-1 10 ppm", "result": 50, "unit": "%"}, {"measurement": "Expected value E by Colby's equation (Phytotoxicity %)", "setting": "[1]; safener 50 ppm + H-1 10 ppm", "result": 50, "unit": "%"}, {"measurement": "Phytotoxicity %", "setting": "[2]; paddy rice 2.5 leaf stage, three weeks after application, No. I-1 (4% granules) 1 kg/ha alone, herbicide 0 kg/ha", "result": 0, "unit": "%"}]}, {"smiles": "Cc1ccc(NC(=O)c2snc(Cl)c2Cl)c(C)c1", "note": "[No. I-2]", "values": [{"measurement": "Phytotoxicity %", "setting": "[1]; safener 10 ppm + H-1 10 ppm", "result": 30, "unit": "%"}, {"measurement": "Phytotoxicity %", "setting": "[1]; [3]", "result": 0, "unit": "%"}, {"measurement": "Phytotoxicity %", "setting": "[1]; safener 50 ppm + H-1 10 ppm", "result": 10, "unit": "%"}, {"measurement": "Phytotoxicity %", "setting": "[1]; [4]", "result": 0, "unit": "%"}, {"measurement": "Expected value E by Colby's equation (Phytotoxicity %)", "setting": "[1]; safener 10 ppm + H-1 10 ppm", "result": 50, "unit": "%"}, {"measurement": "Expected value E by Colby's equation (Phytotoxicity %)", "setting": "[1]; safener 50 ppm + H-1 10 ppm", "result": 50, "unit": "%"}]}, {"smiles": "CN(C)CNC(=O)c1snc(Cl)c1Cl", "note": "[No. I-3]", "values": [{"measurement": "Phytotoxicity %", "setting": "[1]; safener 10 ppm + H-1 10 ppm", "result": 5, "unit": "%"}, {"measurement": "Phytotoxicity %", "setting": "[1]; [3]", "result": 0, "unit": "%"}, {"measurement": "Phytotoxicity %", "setting": "[1]; safener 50 ppm + H-1 10 ppm", "result": 0, "unit": "%"}, {"measurement": "Phytotoxicity %", "setting": "[1]; [4]", "result": 0, "unit": "%"}, {"measurement": "Expected value E by Colby's equation (Phytotoxicity %)", "setting": "[1]; safener 10 ppm + H-1 10 ppm", "result": 50, "unit": "%"}, {"measurement": "Expected value E by Colby's equation (Phytotoxicity %)", "setting": "[1]; safener 50 ppm + H-1 10 ppm", "result": 50, "unit": "%"}]}, {"smiles": "CCC(C)c1ccc(NC(=O)c2snc(Cl)c2Cl)cc1", "note": "(stereo not drawn) [No. I-4]", "values": [{"measurement": "Phytotoxicity %", "setting": "[1]; safener 10 ppm + H-1 10 ppm", "result": 10, "unit": "%"}, {"measurement": "Phytotoxicity %", "setting": "[1]; [3]", "result": 0, "unit": "%"}, {"measurement": "Phytotoxicity %", "setting": "[1]; safener 50 ppm + H-1 10 ppm", "result": 5, "unit": "%"}, {"measurement": "Phytotoxicity %", "setting": "[1]; [4]", "result": 0, "unit": "%"}, {"measurement": "Expected value E by Colby's equation (Phytotoxicity %)", "setting": "[1]; safener 10 ppm + H-1 10 ppm", "result": 50, "unit": "%"}, {"measurement": "Expected value E by Colby's equation (Phytotoxicity %)", "setting": "[1]; safener 50 ppm + H-1 10 ppm", "result": 50, "unit": "%"}]}, {"smiles": "CCC(CC)c1ccc(NC(=O)c2snc(Cl)c2Cl)cc1", "note": "[No. I-5]", "values": [{"measurement": "Phytotoxicity %", "setting": "[1]; safener 10 ppm + H-1 10 ppm", "result": 30, "unit": "%"}, {"measurement": "Phytotoxicity %", "setting": "[1]; [3]", "result": 0, "unit": "%"}, {"measurement": "Phytotoxicity %", "setting": "[1]; safener 50 ppm + H-1 10 ppm", "result": 10, "unit": "%"}, {"measurement": "Phytotoxicity %", "setting": "[1]; [4]", "result": 0, "unit": "%"}, {"measurement": "Expected value E by Colby's equation (Phytotoxicity %)", "setting": "[1]; safener 10 ppm + H-1 10 ppm", "result": 50, "unit": "%"}, {"measurement": "Expected value E by Colby's equation (Phytotoxicity %)", "setting": "[1]; safener 50 ppm + H-1 10 ppm", "result": 50, "unit": "%"}]}, {"smiles": "CCN(CC)Cc1ccc(CNC(=O)c2snc(Cl)c2Cl)cc1", "note": "[No. I-6]", "values": [{"measurement": "Phytotoxicity %", "setting": "[1]; safener 10 ppm + H-1 10 ppm", "result": 15, "unit": "%"}, {"measurement": "Phytotoxicity %", "setting": "[1]; [3]", "result": 0, "unit": "%"}, {"measurement": "Phytotoxicity %", "setting": "[1]; safener 50 ppm + H-1 10 ppm", "result": 15, "unit": "%"}, {"measurement": "Phytotoxicity %", "setting": "[1]; [4]", "result": 0, "unit": "%"}, {"measurement": "Expected value E by Colby's equation (Phytotoxicity %)", "setting": "[1]; safener 10 ppm + H-1 10 ppm", "result": 50, "unit": "%"}, {"measurement": "Expected value E by Colby's equation (Phytotoxicity %)", "setting": "[1]; safener 50 ppm + H-1 10 ppm", "result": 50, "unit": "%"}]}, {"smiles": "CC(C)(C)CSCc1ccc(NC(=O)c2snc(Cl)c2Cl)cc1", "note": "[No. I-7]", "values": [{"measurement": "Phytotoxicity %", "setting": "[1]; safener 10 ppm + H-1 10 ppm", "result": 30, "unit": "%"}, {"measurement": "Phytotoxicity %", "setting": "[1]; [3]", "result": 0, "unit": "%"}, {"measurement": "Phytotoxicity %", "setting": "[1]; safener 50 ppm + H-1 10 ppm", "result": 20, "unit": "%"}, {"measurement": "Phytotoxicity %", "setting": "[1]; [4]", "result": 0, "unit": "%"}, {"measurement": "Expected value E by Colby's equation (Phytotoxicity %)", "setting": "[1]; safener 10 ppm + H-1 10 ppm", "result": 50, "unit": "%"}, {"measurement": "Expected value E by Colby's equation (Phytotoxicity %)", "setting": "[1]; safener 50 ppm + H-1 10 ppm", "result": 50, "unit": "%"}]}]}
